Test results reported in the NIST ThermoML archive (doi:10.1016/j.jct.2009.10.009).
Values joined by “and” are separate entries in the source; they are usually repeats but may differ in a detail not shown here. Identical values can stand only once. ± gives the expanded uncertainty stated by the source.

Conditions: Crystal, Calculated from knudsen effusion weight loss

CC(C)(C)c1cc(C=O)c(O)c(C(C)(C)C)c1 [3,5-di-tert-butyl-2-hydroxybenzaldehyde]
Conditions | vapor or sublimation pressure
296.28 K | 0.000151 ± 8e-06 kPa and 0.000143 ± 7e-06 kPa and 0.00014 ± 7e-06 kPa
298.16 K | 0.000193 ± 1e-05 kPa and 0.00018 ± 9e-06 kPa and 0.000176 ± 9e-06 kPa
300.17 K | 0.000248 ± 1.2e-05 kPa and 0.000237 ± 1.2e-05 kPa and 0.000234 ± 1.2e-05 kPa
302.18 K | 0.000304 ± 1.5e-05 kPa and 0.0003 ± 1.5e-05 kPa and 0.000322 ± 1.6e-05 kPa
304.15 K | 0.000408 ± 2e-05 kPa and 0.000382 ± 1.9e-05 kPa and 0.000378 ± 1.9e-05 kPa
306.37 K | 0.000542 ± 2.7e-05 kPa and 0.000514 ± 2.6e-05 kPa and 0.000505 ± 2.5e-05 kPa
308.18 K | 0.000673 ± 3.4e-05 kPa and 0.000631 ± 3.2e-05 kPa and 0.00062 ± 3.1e-05 kPa
310.17 K | 0.000861 ± 4.3e-05 kPa and 0.000812 ± 4.1e-05 kPa and 0.000801 ± 4e-05 kPa
312.2 K | 0.001099 ± 0.00011 kPa and 0.001032 ± 0.0001 kPa and 0.001014 ± 0.0001 kPa

O=Cc1cccc(O)c1 [3-hydroxybenzaldehyde]
Conditions | vapor or sublimation pressure
312.17 K | 0.000139 ± 7e-06 kPa and 0.000134 ± 7e-06 kPa and 0.000131 ± 7e-06 kPa
314.2 K | 0.000177 ± 9e-06 kPa and 0.000171 ± 9e-06 kPa and 0.000168 ± 8e-06 kPa
316.2 K | 0.000233 ± 1.2e-05 kPa and 0.00022 ± 1.1e-05 kPa and 0.000216 ± 1.1e-05 kPa
318.19 K | 0.00028 ± 1.4e-05 kPa and 0.000275 ± 1.4e-05 kPa and 0.000288 ± 1.4e-05 kPa
320.18 K | 0.000377 ± 1.9e-05 kPa and 0.000358 ± 1.8e-05 kPa and 0.000353 ± 1.8e-05 kPa
322.2 K | 0.000462 ± 2.3e-05 kPa and 0.000453 ± 2.3e-05 kPa and 0.00044 ± 2.2e-05 kPa
324.17 K | 0.000581 ± 2.9e-05 kPa and 0.000557 ± 2.8e-05 kPa and 0.000542 ± 2.7e-05 kPa
326.22 K | 0.000738 ± 3.7e-05 kPa and 0.000712 ± 3.6e-05 kPa and 0.000694 ± 3.5e-05 kPa
328.18 K | 0.000907 ± 4.5e-05 kPa and 0.000871 ± 4.4e-05 kPa and 0.000849 ± 4.3e-05 kPa
330.19 K | 0.001139 ± 0.00012 kPa and 0.00109 ± 0.00011 kPa and 0.001058 ± 0.00011 kPa

O=Cc1ccc(O)cc1 [4-hydroxybenzaldehyde]
Conditions | vapor or sublimation pressure
324.2 K | 0.000157 ± 8e-06 kPa and 0.000151 ± 8e-06 kPa and 0.000149 ± 7e-06 kPa
326.16 K | 0.000197 ± 1e-05 kPa and 0.000193 ± 1e-05 kPa and 0.000187 ± 9e-06 kPa
328.31 K | 0.000252 ± 1.3e-05 kPa and 0.000244 ± 1.2e-05 kPa and 0.000242 ± 1.2e-05 kPa
330.18 K | 0.000303 ± 1.5e-05 kPa and 0.000296 ± 1.5e-05 kPa and 0.000308 ± 1.5e-05 kPa
332.16 K | 0.000382 ± 1.9e-05 kPa and 0.000375 ± 1.9e-05 kPa and 0.00037 ± 1.9e-05 kPa
334.18 K | 0.000477 ± 2.4e-05 kPa and 0.000472 ± 2.4e-05 kPa and 0.000463 ± 2.3e-05 kPa
336.22 K | 0.000603 ± 3e-05 kPa and 0.000602 ± 3e-05 kPa and 0.000583 ± 2.9e-05 kPa
338.34 K | 0.000756 ± 3.8e-05 kPa and 0.000738 ± 3.7e-05 kPa and 0.000728 ± 3.6e-05 kPa
340.17 K | 0.000926 ± 4.6e-05 kPa and 0.000905 ± 4.5e-05 kPa and 0.000886 ± 4.4e-05 kPa
341.3 K | 0.001019 ± 0.0001 kPa and 0.001005 ± 0.0001 kPa and 0.000984 ± 4.9e-05 kPa
